According to publication PMC8373983, “Effect of salinity on the zinc(II) binding efficiency of siderophore functional groups and implications for salinity tolerance mechanisms in barley” (Scientific Reports, 2021):
Where two headings read alike, the source gives them in different places.

What was measured:
[1] = Ligand protonation constants, potentiometric titration in NaCl; format: physicochemical; conditions: T = 298.1 K
Procedure: (§1) Potentiometric measurements were carried out at T = 298.1 ± 0.1 K in thermostatted cells. The setup consisted of a Metrohm model 888 Titrando apparatus controlled by Metrohm TiAMO 1.2 software equipped with a combined gel electrode (VWR model 662 1759). Estimated precision was 0.2 mV and 0.003 ml for the electromotive force and titrant volume readings, respectively. All the potentiometric titrations were carried out under magnetic stirring and bubbling purified presaturated N2 through the solution to exclude O2 and CO2.
(§2) A 30 ml solution containing each ligand ([L] = 5 – 10 mM), NaCl and HCl was titrated with standard NaOH solutions. For the zinc(II)/ligand systems, the titrant solutions consisted of different amounts of ligand ([L] = 5 − 10 mM), zinc(II) ([Zn] = 0.5—5 mM) and a suitable amount of HCl and NaCl. All the measurements were carried out with an excess of the ligand, with respect to zinc(II) and at different zinc(II):ligand molar ratios. The selection of ratios investigated was determined by simulating titrations using Hyperquad Simulation and Speciation computer software (HySS)[41]. [Zn] and [L] were negligible compared to the background electrolyte concentrations. […] To account for the influence of zinc(II) hydrolysis in the zinc(II)/ligand systems, zinc(II) titrations were carried out separately at each ionic strength to determine the hydroxide constants so that these constants could be included in the equilibrium model used to refine the titration data. In these titrations, the zinc(II) concentration in the analyte solution was 0.7 mM.
(§3) Before each experiment, independent titrations of strong acid solutions with standard base were carried out under the same medium and ionic strength conditions as the systems to be investigated, with the aim of determining the electrode potential (E^0’) using GLEE software. In this way, the pH scale used was the […], pH = -log [H]^+, where [H]^+ is the free proton concentration. For each titration, approximately 80 to 100 data points were collected. The equilibrium state during titrations was checked by confirming the time required to reach equilibrium.
(§4) The software program Hyperquad was used to determine the equilibrium model and to calculate pKa and stability constants from the potentiometric data set[43]. For each set of pKa constants or zinc(II):ligand ratio studied, at least two repeat titrations were performed. The titration curves for each system were treated as a single set when refining the stability constants. This meant that the refinement procedure was run on both curves at the same time to derive a single set of constants. The error reported on the stability constants is the standard deviation given in the Hyperquad output file. Examples of Hyperquad files for the zinc(II)/PYR system are provided on the Zenodo repository (https://doi.org/10.5281/zenodo.4641710).
(§5) The ionic strength dependence of the stability constants was studied with the modified version of the Extended Debye–Hückel equation[28]. The Monte Carlo method, as described by Hu et al.[43], was used to estimate 95% confidence intervals on the parameters of ionic strength dependence; for each species, predicted stability constants were resampled using an inverse of the cumulative normal distribution function to give sets of simulated data from which the unknown parameters were optimized. An example Excel calculation file for the application of the modified version of the Extended Debye–Hückel equation to the zinc(II)/PYR system (including the calculation of error on parameters of ionic strength dependence) has been uploaded to the Zenodo repository (https://doi.org/10.5281/zenodo.4641710).
(§6) To quantify the improvement of using a direct vs. indirect method for studying ionic strength dependence, the Davies equation (Eq. 3) was applied to the zinc(II)/PYR data. Speciation calculations for a [Zn] = 10^–6 M and [L] = 10^–5 M system at infinite dilution were conducted with the aid of HySS. […]

[2] = Zinc(II)-ligand stability constants, potentiometric titration in NaCl; format: binding
Procedure: as §1, §2, §3, §4, §5, §6

[3] = parameters: method as in earlier work; conditions: cited from earlier work
[4] = cited from earlier work
[5] = parameter of ionic strength dependence, NaCl
[6] = parameter of ionic strength dependence

CC(=O)NO [AHA, acetohydroxamic acid]
log β, H+ + L = HL ([1]; 0.05 M NaCl): 9.28 ± 0.01
log β, H+ + L = HL ([1]; 0.15 M NaCl): 9.06 ± 0.01
log β, H+ + L = HL ([1]; 0.30 M NaCl): 9.10 ± 0.01
log β, H+ + L = HL ([1]; 0.70 M NaCl): 9.04 ± 0.01
log β, H+ + L = HL ([1]; 1.00 M NaCl): 9.07 ± 0.01
logβ^0, H+ + L = HL ([1]; intrinsic, modified Extended Debye–Hückel fit (direct)): 9.376 ± 0.001
C, H+ + L = HL [1, 5]: 0.085 ± 0.001
log β, Zn2+ + 2L = ZnL2 ([2]; 0.05 M NaCl, T = 298.1 K): 9.60±0.01
log β, Zn2+ + 2OH- + L- = ZnOH2L- ([2]; 0.05 M NaCl, T = 298.1 K): -13.60±0.04
log β, Zn2+ + L = ZnL (1:1) ([2]; 0.05 M NaCl, T = 298.1 K): 5.32±0.01
log β, Zn2+ + OH- + L- = ZnOHL ([2]; 0.05 M NaCl, T = 298.1 K): -3.22±0.04
log β, Zn2+ + 2L = ZnL2 ([2]; 0.15 M NaCl, T = 298.1 K): 9.16±0.01
log β, Zn2+ + 2OH- + L- = ZnOH2L- ([2]; 0.15 M NaCl, T = 298.1 K): -13.65±0.01
log β, Zn2+ + L = ZnL (1:1) ([2]; 0.15 M NaCl, T = 298.1 K): 5.10±0.01
log β, Zn2+ + OH- + L- = ZnOHL ([2]; 0.15 M NaCl, T = 298.1 K): -3.64±0.02
log β, Zn2+ + 2L = ZnL2 ([2]; 0.30 M NaCl, T = 298.1 K): 9.11±0.01
log β, Zn2+ + 2OH- + L- = ZnOH2L- ([2]; 0.30 M NaCl, T = 298.1 K): -13.21±0.07
log β, Zn2+ + L = ZnL (1:1) ([2]; 0.30 M NaCl, T = 298.1 K): 5.01±0.03
log β, Zn2+ + OH- + L- = ZnOHL ([2]; 0.30 M NaCl, T = 298.1 K): -4.22±0.08
log β, Zn2+ + 2L = ZnL2 ([2]; 0.70 M NaCl, T = 298.1 K): 8.79±0.01
log β, Zn2+ + 2OH- + L- = ZnOH2L- ([2]; 0.70 M NaCl, T = 298.1 K): -14.07±0.02
log β, Zn2+ + L = ZnL (1:1) ([2]; 0.70 M NaCl, T = 298.1 K): 4.87±0.01
log β, Zn2+ + OH- + L- = ZnOHL ([2]; 0.70 M NaCl, T = 298.1 K): -4.07±0.02
stability of the 1:1 zinc(II) species below/above the equivalent PYR and GLY complexes ([2]; 1:1 zinc(II) complex): 3.5–4 logβ units
log β, Zn2+ + 2L = ZnL2 ([2]; 1.00 M NaCl, T = 298.1 K): 8.79±0.01
log β, Zn2+ + 2OH- + L- = ZnOH2L- ([2]; 1.00 M NaCl, T = 298.1 K): -13.96±0.01
log β, Zn2+ + L = ZnL (1:1) ([2]; 1.00 M NaCl, T = 298.1 K): 4.82±0.01
log β, Zn2+ + OH- + L- = ZnOHL ([2]; 1.00 M NaCl, T = 298.1 K): -4.41±0.04
decrease of the 1:1 zinc(II) stability constant ([2]; between 0.00 and 1.00 M NaCl): 0.79 logβ units
decrease of the 1:1 zinc(II) stability constant ([2]; between 0.05 and 1.00 M NaCl): 14%
logβ0, Zn2+ + 2L = ZnL2 ([2]; intrinsic, modified Extended Debye–Hückel fit (direct), T = 298.1 K): 10.021±0.001
C, Zn2+ + 2L = ZnL2 [2, 5]: -0.052±0.002
C, Zn2+ + 2OH- + L- = ZnOH2L- [2, 5]: 0.571±0.017
C, Zn2+ + OH- + L- = ZnOHL [2, 5]: 1.2095±0.027

CC(=O)N(O)CCCCCNC(=O)CCC(=O)N(O)CCCCCNC(=O)CCC(=O)N(O)CCCCCN [DFOB, desferrioxamine B]
log β, 2H+ + L3− = H2L− ([3]; 0.05 M NaCl, T = 298.1 K): 20.94 ± 0.09
log β, 3H+ + L3− = H3L ([3]; 0.05 M NaCl, T = 298.1 K): 30.05 ± 0.12
log β, 4H+ + L3− = H4L+ ([3]; 0.05 M NaCl, T = 298.1 K): 38.83 ± 0.14
log β, H+ + L3− = HL2− ([3]; 0.05 M NaCl, T = 298.1 K): 11.07 ± 0.07
log β, 2H+ + L3− = H2L− ([3]; 0.15 M NaCl, T = 298.1 K): 20.25 ± 0.06
log β, 3H+ + L3− = H3L ([3]; 0.15 M NaCl, T = 298.1 K): 29.10 ± 0.09
log β, 4H+ + L3− = H4L+ ([3]; 0.15 M NaCl, T = 298.1 K): 37.46 ± 0.13
log β, H+ + L3− = HL2− ([3]; 0.15 M NaCl, T = 298.1 K): 10.74 ± 0.04
log β, 2H+ + L3− = H2L− ([3]; 0.30 M NaCl, T = 298.1 K): 19.84 ± 0.04
log β, 3H+ + L3− = H3L ([3]; 0.30 M NaCl, T = 298.1 K): 28.61 ± 0.07
log β, 4H+ + L3− = H4L+ ([3]; 0.30 M NaCl, T = 298.1 K): 37.00 ± 0.10
log β, H+ + L3− = HL2− ([3]; 0.30 M NaCl, T = 298.1 K): 10.36 ± .02
log β, 2H+ + L3− = H2L− ([3]; 0.70 M NaCl, T = 298.1 K): 19.77 ± 0.04
log β, 3H+ + L3− = H3L ([3]; 0.70 M NaCl, T = 298.1 K): 28.60 ± 0.08
log β, 4H+ + L3− = H4L+ ([3]; 0.70 M NaCl, T = 298.1 K): 36.97 ± 0.16
log β, H+ + L3− = HL2− ([3]; 0.70 M NaCl, T = 298.1 K): 10.35 ± 0.02
log β, 2H+ + L3− = H2L− ([3]; 1.00 M NaCl, T = 298.1 K): 19.77 ± 0.08
log β, 3H+ + L3− = H3L ([3]; 1.00 M NaCl, T = 298.1 K): 28.57 ± 0.12
log β, 4H+ + L3− = H4L+ ([3]; 1.00 M NaCl, T = 298.1 K): 36.92 ± 0.14
log β, H+ + L3− = HL2− ([3]; 1.00 M NaCl, T = 298.1 K): 10.14 ± 0.06
logβ^0, 2H+ + L3− = H2L− ([3]; intrinsic, T = 298.1 K): 21.530 ± 0.006
logβ^0, 3H+ + L3− = H3L ([3]; intrinsic, T = 298.1 K): 30.691 ± 0.012
logβ^0, 4H+ + L3− = H4L+ ([3]; intrinsic, T = 298.1 K): 39.250 ± 0.023
logβ^0, H+ + L3− = HL2− ([3]; intrinsic, T = 298.1 K): 11.491 ± 0.003
C, 3H+ + L3− = H3L [3, 6]: 0.194 ± 0.012
log β, Zn2+ + 2H+ + L3- = ZnH2L+ ([4]; 0.05 M NaCl, T = 298.1 K): 29.30±0.13
log β, Zn2+ + H+ + L3- = ZnHL ([4]; 0.05 M NaCl, T = 298.1 K): 21.55±0.11
log β, Zn2+ + L3- = ZnL- ([4]; 0.05 M NaCl, T = 298.1 K): 11.67±0.06
log β, Zn2+ + 2H+ + L3- = ZnH2L+ ([4]; 0.15 M NaCl, T = 298.1 K): 27.81±0.05
log β, Zn2+ + H+ + L3- = ZnHL ([4]; 0.15 M NaCl, T = 298.1 K): 19.85±0.04
log β, Zn2+ + L3- = ZnL- ([4]; 0.15 M NaCl, T = 298.1 K): 9.91±0.02
log β, Zn2+ + 2H+ + L3- = ZnH2L+ ([4]; 0.30 M NaCl, T = 298.1 K): 27.42±0.08
log β, Zn2+ + H+ + L3- = ZnHL ([4]; 0.30 M NaCl, T = 298.1 K): 19.85±0.06
log β, Zn2+ + L3- = ZnL- ([4]; 0.30 M NaCl, T = 298.1 K): 9.97±0.04
log β, Zn2+ + 2H+ + L3- = ZnH2L+ ([4]; 0.70 M NaCl, T = 298.1 K): 27.19±0.12
log β, Zn2+ + H+ + L3- = ZnHL ([4]; 0.70 M NaCl, T = 298.1 K): 19.34±0.09
log β, Zn2+ + L3- = ZnL- ([4]; 0.70 M NaCl, T = 298.1 K): 9.39±0.05
log β, Zn2+ + 2H+ + L3- = ZnH2L+ ([4]; 1.00 M NaCl, T = 298.1 K): 27.25±0.08
log β, Zn2+ + H+ + L3- = ZnHL ([4]; 1.00 M NaCl, T = 298.1 K): 19.38±0.06
log β, Zn2+ + L3- = ZnL- ([4]; 1.00 M NaCl, T = 298.1 K): 9.32±0.04
decrease of the 1:1 zinc(II) stability constant ([4]; between 0.05 and 1.00 M NaCl): 21%
logβ0, Zn2+ + 2H+ + L3- = ZnH2L+ ([4]; intrinsic, T = 298.1 K): 29.872±0.027
logβ0, Zn2+ + H+ + L3- = ZnHL ([4]; intrinsic, T = 298.1 K): 22.105±0.026
logβ0, Zn2+ + L3- = ZnL- ([4]; intrinsic, T = 298.1 K): 12.027±0.039
C, Zn2+ + 2H+ + L3- = ZnH2L+ [4, 6]: 0.009±0.051
C, Zn2+ + H+ + L3- = ZnHL [4, 6]: -0.075±0.053
C, Zn2+ + L3- = ZnL- [4, 6]: -0.486±0.077
